Assay results taken from patent publication US20100144700A1, “HETEROCYCLIC-CARBONYL-DIAZABICYCLOALKANES AS MODULATORS OF THE NEURONAL NICOTINIC ACETYLCHOLINE ALPHA 4 BETA 2, SUBTYPE RECEPTOR FOR THE TREATMENT OF CNS RELATED DISORDERS” (TARGACEPT, INC., priority 2007, published 2010).
Where two headings read alike, the source gives them in different places.

How the values were obtained:
α4β2 nAChR Subtype = target: T1, α4β2 nAChR Subtype (Rattus norvegicus, UniProt P09483+P12390); assay: Radioligand binding ([3H]nicotine) at rat α4β2 nAChR subtype, rat cerebral cortex membranes
T1 construct: The cerebral cortex was removed and placed in 20 volumes (weight:volume) of ice-cold preparative buffer; from tissue; host or cells: rat cerebral cortex membranes
Description: (§1) Rats (female, Sprague-Dawley), weighing 150-250 g, were maintained on a 12 h light/dark cycle and were allowed free access to water and food supplied by PMI Nutrition International, Inc. Animals were anesthetized with 70% CO2, then decapitated. Brains were removed and placed on an ice-cold platform. The cerebral cortex was removed and placed in 20 volumes (weight:volume) of ice-cold preparative buffer (137 mM NaCl, 10.7 mM KCl, 5.8 mM KH2PO4, 8 mM Na2HPO4, 20 mM HEPES (free acid), 5 mM iodoacetamide, 1.6 mM EDTA, pH 7.4); PMSF, dissolved in methanol to a final concentration of 100 μM, was added and the suspension was homogenized by Polytron. The homogenate was centrifuged at 18,000×g for 20 min at 4° C. and the resulting pellet was re-suspended in 20 volumes of ice-cold water. After 60 min incubation on ice, a new pellet was collected by centrifugation at 18,000×g for 20 min at 4° C. The final pellet was re-suspended in 10 volumes of buffer and stored at −20° C. On the day of the assay, tissue was thawed, centrifuged at 18,000×g for 20 min, and then re-suspended in ice-cold PBS (Dulbecco's Phosphate Buffered Saline, 138 mM NaCl, 2.67 mM KCl, 1.47 mM KH2PO4, 8.1 mM Na2HPO4, 0.9 mM CaCl2, 0.5 mM MgCl2, Invitrogen/Gibco, pH 7.4) to a final concentration of approximately 4 mg protein/mL. Protein was determined by the method of Lowry et al., J. Biol. Chem. 193: 265 (1951), using bovine serum albumin as the standard.
The binding of [^3H]nicotine was measured using a modification of the methods of Romano et al., Science 210: 647 (1980) and Marks et al., Mol. Pharmacol. 30: 427 (1986). The [^3H]nicotine (Specific Activity=81.5 Ci/mmol) was obtained from NEN Research Products. The binding of [^3H]nicotine was measured using a 3 h incubation at 4° C. Incubations were conducted in 48-well micro-titre plates and contained about 400 μg of protein per well in a final incubation volume of 300 μL. The incubation buffer was PBS and the final concentration of [^3H]nicotine was 5 nM. The binding reaction was terminated by filtration of the protein containing bound ligand onto glass fiber filters (GF/B, Brandel) using a Brandel Tissue Harvester at 4° C. Filters were soaked in de-ionized water containing 0.33% polyethyleneimine to reduce non-specific binding. Each filter was washed with ice-cold buffer (3×1 mL). Non-specific binding was determined by inclusion of 10 μM non-radioactive L-nicotine (Acros Organics) in selected wells.
The inhibition of [^3H]nicotine binding by test compounds was determined by including seven different concentrations of the test compound in selected wells. Each concentration was replicated in triplicate. IC50 values were estimated as the concentration of compound that inhibited 50 percent of specific [^3H]nicotine binding. Inhibition constants (Ki values), reported in nM, were calculated from the IC50 values using the method of Cheng et al., Biochem. Pharmacol. 22: 3099 (1973).

Human α4β2 = Human α4β2 (Homo sapiens, UniProt P17787+P43681); assay: Binding at human α4β2 subtype (Table 1)
α7 nAChR Subtype = target: T2, α7 nAChR Subtype (Rattus norvegicus, UniProt Q05941); assay: Radioligand binding ([3H]MLA) at α7 nAChR subtype, rat hippocampus membranes; HTS at 5 μM; conditions: for inhibition at 5 µM: 5 μM compound, 5 nM 3H-MLA, read-out: α7 high throughput screening (HTS) binding
T2 construct: The hippocampus was removed and placed in 10 volumes (weight:volume) of ice-cold preparative buffer; from tissue; host or cells: rat hippocampus membranes
Description: as §1, with “platform. The hippocampus was removed” for “platform. The cerebral cortex was removed”, “placed in 10 volumes (weight:volume)” for “placed in 20 volumes (weight:volume)”, “and the tissue suspension was” for “and the suspension was”, “re-suspended in 10 volumes of” for “re-suspended in 20 volumes of”, “of approximately 2 mg protein/mL.” for “of approximately 4 mg protein/mL.”
The binding of [^3H]MLA was measured using a modification of the methods of Davies et al., Neuropharmacol. 38: 679 (1999). [^3H]MLA (Specific Activity=25-35 Ci/mmol) was obtained from Tocris. The binding of [^3H]MLA was determined using a 2 h incubation at 21° C. Incubations were conducted in 48-well micro-titre plates and contained about 200 μg of protein per well in a final incubation volume of 300 μL. The incubation buffer was PBS and the final concentration of [^3H]MLA was 5 nM. The binding reaction was terminated by filtration of the protein containing bound ligand onto glass fiber filters (GF/B, Brandel) using a Brandel Tissue Harvester at room temperature. Filters were soaked in de-ionized water containing 0.33% polyethyleneimine to reduce non-specific binding. Each filter was washed with PBS (3×1 mL) at room temperature. Non-specific binding was determined by inclusion of 50 μM non-radioactive MLA in selected wells.
[…] Each concentration was replicated in triplicate. […] […] Pharmacol. 22: 3099-3108 (1973).

[1] = [3H]nicotine 5 nM, rat cortex, read-out: Rat α4β2 Ki

T1 sequence (P09483 31-630): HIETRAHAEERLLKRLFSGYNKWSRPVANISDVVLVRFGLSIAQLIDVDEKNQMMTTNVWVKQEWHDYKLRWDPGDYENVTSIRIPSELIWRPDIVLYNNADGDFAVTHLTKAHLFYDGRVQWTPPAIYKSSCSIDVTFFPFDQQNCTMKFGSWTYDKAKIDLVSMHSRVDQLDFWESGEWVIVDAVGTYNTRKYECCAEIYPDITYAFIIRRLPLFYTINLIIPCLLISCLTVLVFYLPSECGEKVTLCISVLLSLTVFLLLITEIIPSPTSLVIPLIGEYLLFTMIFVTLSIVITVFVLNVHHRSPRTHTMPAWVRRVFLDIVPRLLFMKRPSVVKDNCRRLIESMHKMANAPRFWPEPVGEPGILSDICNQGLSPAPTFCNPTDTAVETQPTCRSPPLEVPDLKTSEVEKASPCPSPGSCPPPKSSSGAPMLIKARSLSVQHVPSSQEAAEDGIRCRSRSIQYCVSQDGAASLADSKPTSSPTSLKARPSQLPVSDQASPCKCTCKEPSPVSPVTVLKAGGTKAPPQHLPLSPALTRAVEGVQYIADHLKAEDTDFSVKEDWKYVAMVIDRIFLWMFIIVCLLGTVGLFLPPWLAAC
T1 sequence (P12390 25-500): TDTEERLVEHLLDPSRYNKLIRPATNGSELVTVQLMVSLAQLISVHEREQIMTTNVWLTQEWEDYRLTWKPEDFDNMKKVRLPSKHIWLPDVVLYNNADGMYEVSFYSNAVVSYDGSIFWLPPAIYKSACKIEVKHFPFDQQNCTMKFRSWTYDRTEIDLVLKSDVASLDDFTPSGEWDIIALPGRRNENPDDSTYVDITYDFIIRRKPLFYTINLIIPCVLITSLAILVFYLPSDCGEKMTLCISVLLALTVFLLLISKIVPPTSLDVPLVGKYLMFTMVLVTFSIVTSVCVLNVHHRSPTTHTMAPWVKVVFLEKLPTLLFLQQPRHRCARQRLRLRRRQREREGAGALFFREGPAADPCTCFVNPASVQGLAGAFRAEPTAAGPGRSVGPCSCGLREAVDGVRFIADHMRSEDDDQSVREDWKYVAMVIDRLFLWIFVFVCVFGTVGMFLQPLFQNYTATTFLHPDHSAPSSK
Chain of Human α4β2 (P43681 29-627 limits assumed): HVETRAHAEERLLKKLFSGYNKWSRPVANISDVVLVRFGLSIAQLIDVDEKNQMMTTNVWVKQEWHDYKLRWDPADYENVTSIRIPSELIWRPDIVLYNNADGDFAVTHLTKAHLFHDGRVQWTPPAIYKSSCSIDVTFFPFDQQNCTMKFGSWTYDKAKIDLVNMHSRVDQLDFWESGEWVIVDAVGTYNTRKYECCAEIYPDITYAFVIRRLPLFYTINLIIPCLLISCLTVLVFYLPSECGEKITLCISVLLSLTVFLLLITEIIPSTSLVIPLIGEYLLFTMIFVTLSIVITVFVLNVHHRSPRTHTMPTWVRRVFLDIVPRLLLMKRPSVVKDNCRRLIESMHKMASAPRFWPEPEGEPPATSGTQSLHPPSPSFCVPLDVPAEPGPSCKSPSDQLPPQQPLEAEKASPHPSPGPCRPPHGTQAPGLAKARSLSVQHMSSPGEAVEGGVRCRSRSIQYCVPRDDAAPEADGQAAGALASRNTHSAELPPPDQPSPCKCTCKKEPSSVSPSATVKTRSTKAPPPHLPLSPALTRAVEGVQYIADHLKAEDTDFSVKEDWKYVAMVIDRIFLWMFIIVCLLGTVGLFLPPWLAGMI
Chain of Human α4β2 (P17787 26-502): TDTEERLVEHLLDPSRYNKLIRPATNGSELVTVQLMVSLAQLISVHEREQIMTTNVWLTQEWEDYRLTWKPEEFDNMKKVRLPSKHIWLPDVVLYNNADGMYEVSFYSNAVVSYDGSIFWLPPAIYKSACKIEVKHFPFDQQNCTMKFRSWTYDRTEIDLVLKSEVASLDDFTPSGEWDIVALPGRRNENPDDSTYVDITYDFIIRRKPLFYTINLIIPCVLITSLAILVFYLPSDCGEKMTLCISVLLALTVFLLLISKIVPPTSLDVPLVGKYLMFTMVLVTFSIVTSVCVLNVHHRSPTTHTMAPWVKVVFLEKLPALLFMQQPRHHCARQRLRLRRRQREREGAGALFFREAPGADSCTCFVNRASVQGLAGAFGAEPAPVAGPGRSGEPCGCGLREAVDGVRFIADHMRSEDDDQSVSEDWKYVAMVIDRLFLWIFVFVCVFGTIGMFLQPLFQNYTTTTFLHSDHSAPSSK
T2 sequence (Q05941 23-502): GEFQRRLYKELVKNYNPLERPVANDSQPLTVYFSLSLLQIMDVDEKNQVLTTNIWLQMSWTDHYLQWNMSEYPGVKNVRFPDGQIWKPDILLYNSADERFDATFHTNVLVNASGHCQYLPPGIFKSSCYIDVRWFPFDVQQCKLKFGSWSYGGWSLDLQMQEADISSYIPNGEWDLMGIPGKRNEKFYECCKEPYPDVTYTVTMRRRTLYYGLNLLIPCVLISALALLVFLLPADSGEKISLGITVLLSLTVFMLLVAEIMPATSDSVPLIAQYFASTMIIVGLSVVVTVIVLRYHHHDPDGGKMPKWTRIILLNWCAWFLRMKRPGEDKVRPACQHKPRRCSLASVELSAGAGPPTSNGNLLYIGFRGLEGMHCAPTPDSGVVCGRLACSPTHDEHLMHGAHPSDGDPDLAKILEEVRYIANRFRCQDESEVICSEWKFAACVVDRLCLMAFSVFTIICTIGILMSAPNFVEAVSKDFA

Row | Structure (SMILES) | Ki (α4β2 nAChR Subtype) [µM] | Ki (Human α4β2; read-out: Human α4β2 Ki) [µM] | inhibition at 5 µM (α7 nAChR Subtype) [%] | Ki (α4β2 nAChR Subtype; [1]) [µM] | Ki (Human α4β2) [µM] | Ki (α7 nAChR Subtype; [3H]MLA 5 nM, rat hippocampus) [µM]
1 | O=C(c1ccco1)N1CC2CNC(C2)C1 (stereo not drawn) | 0.0192 | 0.0239 | ≤ 50 | – | – | –
2 | O=C(c1ccncc1)N1CC2CNC(C2)C1 (stereo not drawn) | – | 0.0297 | ≤ 50 | – | – | –
3 | O=C(c1ccco1)N1CC2CNCC1C2 (stereo not drawn) | – | 0.217 | ≤ 50 | – | – | –
4 | O=C(c1ccc(Br)o1)N1CC2CNC(C2)C1 (stereo not drawn) | 0.0145 | 0.0008 | ≤ 50 | – | – | –
5 | Cc1ccoc1C(=O)N1CC2CNC(C2)C1 (stereo not drawn) | – | 0.0034 | ≤ 50 | – | – | –
6 | O=C(c1cccnc1)N1CC2CNC(C2)C1 (stereo not drawn) | – | 0.359 | ≤ 50 | – | – | –
7 | O=C(c1cc(Br)no1)N1CC2CNC(C2)C1 (stereo not drawn) | 0.0034 | 0.0028 | ≤ 50 | – | – | –
8 | COc1cc(C(=O)N2CC3CNC(C3)C2)on1 (stereo not drawn) | 0.005 | 0.0037 | ≤ 50 | – | – | –
9 | Cc1ccoc1C(=O)N1CC2CNCC1C2 (stereo not drawn) | – | – | ≤ 50 | 0.139 | 0.0952 | –
10 | O=C(c1ccncc1)N1CC2CNCC1C2 (stereo not drawn) | – | 0.132 | ≤ 50 | 0.317 | – | –
11 | O=C(c1cc(Br)no1)N1CC2CNCC1C2 (stereo not drawn) | – | – | ≤ 50 | 0.172 | 0.0143 | –
12 | COc1cc(C(=O)N2CC3CNCC2C3)on1 (stereo not drawn) | – | 0.306 | ≤ 50 | 0.195 | – | –
13 | O=C(c1ccco1)N1C[C@@H]2CN[C@@H](C2)C1 | 0.0409 | 0.0169 | – | – | – | 1.02
14 | COc1cc(C(=O)N2C[C@@H]3CN[C@@H](C3)C2)on1 | – | – | ≤ 50 | 0.367 | 0.0954 | –
15 | O=C(c1ccco1)N1C[C@H]2CN[C@H](C2)C1 | 0.0108 | 0.0131 | ≤ 50 | – | – | –
16 | O=C(c1ccc(Br)o1)N1C[C@H]2CN[C@H](C2)C1 | 0.0144 | 0.0068 | ≤ 50 | – | – | –
17 | O=C(c1cc(Br)no1)N1C[C@H]2CN[C@H](C2)C1 | 0.0035 | 0.0018 | ≤ 50 | – | – | –
18 | Cc1occc1C(=O)N1C[C@H]2CN[C@H](C2)C1 | 0.0173 | 0.0109 | ≤ 50 | – | – | –
19 | O=C(c1ccc(Cl)o1)N1C[C@@H]2CN[C@@H](C2)C1 | 0.0396 | 0.0271 | ≤ 50 | – | – | –
20 | Cc1cc(C(=O)N2C[C@@H]3CN[C@@H](C3)C2)no1 | – | 0.503 | ≤ 50 | 0.853 | – | –
21 | O=C(c1ccno1)N1C[C@@H]2CN[C@@H](C2)C1 | 0.0268 | 0.0345 | ≤ 50 | – | – | –
22 | O=C(c1cnco1)N1C[C@@H]2CN[C@@H](C2)C1 | 0.0701 | 0.0852 | ≤ 50 | – | – | –

Row | Structure (SMILES) | Ki (α4β2 nAChR Subtype) [µM] | Ki (Human α4β2; read-out: Human α4β2 Ki) [µM] | inhibition at 5 µM (α7 nAChR Subtype) [%] | Ki (α4β2 nAChR Subtype; [1]) [µM] | Ki (Human α4β2) [µM] | Ki (α7 nAChR Subtype; [3H]MLA 5 nM, rat hippocampus) [µM]
23 | O=C(c1ccc(F)o1)N1C[C@H]2CN[C@H](C2)C1 | 0.0085 | 0.0069 | ≤ 50 | – | – | –
24 | O=C(c1ccoc1)N1C[C@H]2CN[C@H](C2)C1 | 0.0106 | 0.0105 | ≤ 50 | – | – | –
25 | Cc1nocc1C(=O)N1C[C@H]2CN[C@H](C2)C1 | 0.0567 | 0.0549 | ≤ 50 | – | – | –
26 | Cc1ncoc1C(=O)N1C[C@H]2CN[C@H](C2)C1 | 0.0089 | 0.0046 | ≤ 50 | – | – | –
27 | Cc1cc(C(=O)N2C[C@H]3CN[C@H](C3)C2)no1 | 0.0148 | 0.0171 | ≤ 50 | – | – | –
28 | O=C(c1ccno1)N1C[C@H]2CN[C@H](C2)C1 | 0.0102 | 0.0114 | ≤ 50 | – | – | –
29 | O=C(c1cccs1)N1C[C@H]2CN[C@H](C2)C1 | 0.0059 | 0.0072 | ≤ 50 | – | – | –
30 | O=C(c1cnco1)N1C[C@H]2CN[C@H](C2)C1 | 0.013 | 0.014 | ≤ 50 | – | – | –
31 | Cc1cc(C(=O)N2C[C@@H]3CN[C@@H](C3)C2)on1 | – | – | ≤ 50 | 0.104 | 0.0761 | –
32 | O=C(c1ccc(F)o1)N1C[C@@H]2CN[C@@H](C2)C1 | 0.0093 | 0.0145 | ≤ 50 | – | – | –
33 | Cc1coc(C(=O)N2C[C@@H]3CN[C@@H](C3)C2)c1 | 0.0294 | 0.0516 | ≤ 50 | – | – | –
34 | O=C(c1cc(Cl)co1)N1C[C@@H]2CN[C@@H](C2)C1 | 0.0312 | 0.0414 | ≤ 50 | – | – | –
35 | N#Cc1coc(C(=O)N2C[C@@H]3CN[C@@H](C3)C2)c1 | 0.0236 | 0.0486 | ≤ 50 | – | – | –
36 | CC(C)c1cc(C(=O)N2C[C@@H]3CN[C@@H](C3)C2)on1 | – | 0.724 | ≤ 50 | 0.47 | – | –
37 | O=C(c1ccco1)N1CCC2CNCC21 (stereo not drawn) | – | 0.851 | ≤ 50 | 0.599 | – | –
38 | O=C(c1ccco1)N1CC2CCNC2C1 (stereo not drawn) | – | 0.789 | ≤ 50 | 0.832 | – | –
39 | Cc1nocc1C(=O)N1CC2CCNCC2C1 (stereo not drawn) | – | 0.892 | ≤ 50 | 0.882 | – | –
40 | Cc1ncoc1C(=O)N1CC2CCNCC2C1 (stereo not drawn) | – | 0.213 | ≤ 50 | 0.952 | – | –
41 | Cc1nocc1C(=O)N1CC2CCNC2C1 (stereo not drawn) | – | 0.639 | ≤ 50 | 0.222 | – | –
42 | Cc1ncoc1C(=O)N1CCC2NCC2C1 (stereo not drawn) | – | 0.792 | ≤ 50 | – | – | –
43 | Cc1ncoc1C(=O)N1CC2CNCCC21 (stereo not drawn) | – | 0.515 | ≤ 50 | – | – | –
44 | O=C(c1ccc(Br)o1)N1C[C@@H]2CN[C@@H](C2)C1 [drawing 16] | 0.0385 | 0.0429 | ≤ 50 | – | – | –
